In patent publication US12428420B2, “Tricyclic heterocycles as FGFR inhibitors” (Incyte Corporation, priority 2021, dated 2025):

Legend:
RT-112/84 cell line = assay: Luminescent Viability Assay (CellTiter-Glo); type: cell-based; conditions: RT-112/84 cell line (bladder, FGFR3-TACC3), 3 days
Protocol: RT112 cells (cell lines and genetic profiles further detailed in Table 2) were purchased from ATCC (Manassas, VA) and maintained in RPMI, 10% FBS (Gibco/Life Technologies). To measure the effect of test compounds on the viability of cells, the cells were plated with RPMI 10% FBS (5×10^3 cells/well/in 50 μL) into black 96-well Greiner polystyrene in the presence or absence of 50 μL of a concentration range of test compounds. After 3 days, 100 μL of CellTiter-Glo Reagent (Promega) was added. Luminescence was read with a TopCount (PerkinElmer). IC50 determination was performed by fitting the curve of percent inhibition versus the log of the inhibitor concentration using the GraphPad Prism 5.0 software.

[1] = target: wild-type un-phosphorylated FGFR3 protein (Homo sapiens, UniProt P22607); assay: FGFR Enzymatic Assay (FRET peptide phosphorylation); type: biochemical; conditions: pre-incubated for 4 hours
wild-type un-phosphorylated FGFR3 protein, sequence (P22607 23-806): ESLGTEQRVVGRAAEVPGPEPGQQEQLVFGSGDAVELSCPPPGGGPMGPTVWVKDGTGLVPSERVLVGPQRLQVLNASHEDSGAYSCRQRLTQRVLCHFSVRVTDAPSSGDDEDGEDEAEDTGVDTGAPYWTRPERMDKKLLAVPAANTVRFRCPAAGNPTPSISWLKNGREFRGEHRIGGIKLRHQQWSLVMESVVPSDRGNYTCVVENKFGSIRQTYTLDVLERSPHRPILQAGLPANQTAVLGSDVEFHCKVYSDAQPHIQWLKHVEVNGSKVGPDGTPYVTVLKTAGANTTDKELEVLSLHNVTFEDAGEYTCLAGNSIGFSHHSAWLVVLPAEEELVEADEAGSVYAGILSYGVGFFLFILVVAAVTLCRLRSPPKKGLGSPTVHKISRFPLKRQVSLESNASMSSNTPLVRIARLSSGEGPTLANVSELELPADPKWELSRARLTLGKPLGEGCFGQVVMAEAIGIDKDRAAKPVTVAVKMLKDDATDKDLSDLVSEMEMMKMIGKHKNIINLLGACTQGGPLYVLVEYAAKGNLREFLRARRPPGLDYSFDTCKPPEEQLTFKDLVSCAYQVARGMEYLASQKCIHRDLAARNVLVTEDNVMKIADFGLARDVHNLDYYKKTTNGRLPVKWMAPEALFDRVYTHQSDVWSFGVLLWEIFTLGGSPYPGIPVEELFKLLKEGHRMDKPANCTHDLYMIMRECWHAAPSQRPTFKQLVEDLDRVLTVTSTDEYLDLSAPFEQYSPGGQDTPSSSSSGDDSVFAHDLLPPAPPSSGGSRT
Protocol: The inhibitor potency of the exemplified compounds was determined in an enzyme discontinuous assay that measures peptide phosphorylation using FRET measurements to detect product formation. Inhibitors were serially diluted in DMSO and a volume of 0.2 μL was transferred to the wells of a 384-well plate. A 5 μL/well volume of enzyme isoforms of FGFR (-1, -2, -3 wild-type and mutant isoforms, -4) including phosphorylated and un-phosphorylated proteins diluted in assay buffer (50 mM HEPES, 10 mM MgCl2, 1 mM EGTA, 0.01% Tween-20, 5 mM DTT, pH 7.5) was added to the plate and pre-incubated with inhibitor for 5 to 15 minutes at ambient temperature. Appropriate controls (enzyme blank and enzyme with no inhibitor) were included on the plate. The reaction was initiated by the addition of a 5 μL/well volume containing both biotinylated [sequence] peptide substrate (SEQ ID NO: 1) and ATP in assay buffer. The 10 μL/well reaction concentration of the peptide substrate was 500 nM whereas the ATP concentration was maintained near or below the ATP Km. The ATP Km values were pre-determined in a separate series of experiments. The reaction plate was incubated at 25° C. for 1 hr and the reactions were ended with the addition of 5 μL/well of quench solution (50 mM Tris, 150 mM NaCl, 0.5 mg/mL BSA, pH 7.8; 45 mM EDTA, 600 nM staurosporin, with Perkin Elmer Lance Reagents at 3.75 nM Eu-antibody PY20 and 180 nM APC-Streptavidin). The plate was allowed to equilibrate for ˜10 minutes at ambient temperature before scanning on a PheraStar plate reader (BMG Labtech) instrument.
Either GraphPad prism or XLfit was used to analyze the data. The IC50 values were derived by fitting the data to a four parameter logistic equation producing a sigmoidal dose-response curve with a variable Hill coefficient. Prism equation: Y=Bottom+(Top−Bottom)/(1+10^((Log IC50−X)*Hill slope)); XLfit equation: Y=(A+((B−A)/(1+((X/C)^D)))) where X is the logarithm of inhibitor concentration and Y is the response.

SMILES | IC50 (RT-112/84 cell line; Homo sapiens, RT112/84, 72 h) [nM] | IC50 [1] [nM] | IC50 (RT-112/84 cell line) [nM]
CC(C#N)n1cc(-c2cnc3ccn4c(CO)c(-c5c(Cl)cccc5Cl)nc4c3c2)cn1 (single isomer, unassigned) [17 peak 1] | < 10 | < 1 | 
Cc1c(-c2c(Cl)cccc2Cl)nc2c3cc(-c4cnn(C5CN(C(=O)c6nnn(C)n6)C5)c4)cnc3ccn12 [Example 14, (3-(4-(2-(2,6-Dichlorophenyl)-3-methylimidazo[2,1-J][1,6]naphthyridin-9-yl)-1H-pyrazol-1-yl)azetidin-1-yl)(2-methyl-2H-tetrazol-5-yl)methanone] | 10 to 50 | 1 to 5 | 
CC(C)(C(N)=O)n1cc(-c2cnc3ccn4c(C(F)F)c(-c5c(Cl)cccc5Cl)nc4c3c2)cn1 [Example 33, 2-(4-(2-(2,6-Dichlorophenyl)-3-(difluoromethyl)imidazo[2,1-f][1,6]naphthyridin-9-yl)-1H-pyrazol-1-yl)-2-methylpropanamide] | < 10 | < 1 | 
CC(O)Cn1cc(-c2cnc3ccn4c(CO)c(-c5c(Cl)cccc5Cl)nc4c3c2)cn1 (single isomer, unassigned) [18 peak 2] |  | 1 to 5 | 10 to 50
O=C(CO)N1CCN(c2ccc(-c3cnc4ccn5c(CO)c(-c6c(Cl)cccc6Cl)nc5c4c3)cc2)CC1 [Example 10, 1-(4-(4-(2-(2,6-Dichlorophenyl)-3-(hydroxymethyl)imidazo[2,1-f][1,6]naphthyridin-9-yl)phenyl)piperazin-1-yl)-2-hydroxyethan-1-one] | 10 to 50 | 1 to 5 | 
N#Cc1ccc(Cn2cc(-c3cnc4ccn5c(CO)c(-c6c(Cl)cccc6Cl)nc5c4c3)cn2)cn1 [Example 3, 5-((4-(2-(2,6-Dichlorophenyl)-3-(hydroxymethyl)imidazo[2,1-f][1,6]naphthyridin-9-yl)-1H-pyrazol-1-yl)methyl)picolinonitrile] | < 10 | < 1 | 
CC(O)Cn1cc(-c2cnc3ccn4c(CO)c(-c5c(Cl)cccc5Cl)nc4c3c2)cn1 (single isomer, unassigned) [18 peak 1] | 10 to 50 | 1 to 5 | 
N#Cc1cncc(Cn2cc(-c3cnc4ccn5c(CO)c(-c6c(Cl)cccc6Cl)nc5c4c3)cn2)c1 [Example 2, 5-((4-(2-(2,6-Dichlorophenyl)-3-(hydroxymethyl)imidazo[2,1-f][1,6]naphthyridin-9-yl)-1H-pyrazol-1-yl)methyl)nicotinonitrile] | 10 to 50 | < 1 | 
COCC(=O)N1CC(Cn2cc(-c3cnc4ccn5c(CO)c(-c6c(Cl)cccc6Cl)nc5c4c3)cn2)C1 [Example 27, 1-(3-((4-(2-(2,6-Dichlorophenyl)-3-(hydroxymethyl)imidazo[2,1-f][1,6]naphthyridin-9-yl)-1H-pyrazol-1-yl)methyl)azetidin-1-yl)-2-methoxyethan-1-one] | 10 to 50 | 1 to 5 | 
CS(=O)(=O)CCn1cc(-c2cnc3ccn4c(C(F)F)c(-c5c(Cl)cccc5Cl)nc4c3c2)cn1 [Example 28, 2-(2,6-Dichlorophenyl)-3-(difluoromethyl)-9-(1-(2-(methylsulfonyl)ethyl)-1H-pyrazol-4-yl)imidazo[2,1-f][1,6]naphthyridine] | < 10 | < 1 | 
CN(C)C(=O)c1ccc(Cn2cc(-c3cnc4ccn5c(CO)c(-c6c(Cl)cccc6Cl)nc5c4c3)cn2)cn1 [Example 12, 5-((4-(2-(2,6-Dichlorophenyl)-3-(hydroxymethyl)imidazo[2,1-f][1,6]naphthyridin-9-yl)-1H-pyrazol-1-yl)methyl)-N,N-dimethylpicolinamide] | < 10 | < 1 | 
O=C(c1ccc(-c2cnc3ccn4c(CO)c(-c5c(Cl)cccc5Cl)nc4c3c2)cc1)N1C[C@@H]2C[C@H]1CO2 [Example 7, ((1S,4S)-2-Oxa-5-azabicyclo[2.2.1]heptan-5-yl)(4-(2-(2,6-dichlorophenyl)-3-(hydroxymethyl)imidazo[2,1-f][1,6]naphthyridin-9-yl)phenyl)methanone] | 10 to 50 | 1 to 5 | 
Cc1cccc(Cl)c1-c1nc2c3cc(-c4cnn(CC(C)(C)O)c4)cnc3ccn2c1CO [Example 22, 1-(4-(2-(2-Chloro-6-methylphenyl)-3-(hydroxymethyl)imidazo[2,1-f][1,6]naphthyridin-9-yl)-1H-pyrazol-1-yl)-2-methylpropan-2-ol] | 10 to 50 | 1 to 5 | 
C[C@H](CO)n1cc(-c2cnc3ccn4c(CO)c(-c5c(Cl)cccc5Cl)nc4c3c2)cn1 [Example 24, (R)-2-(4-(2-(2,6-Dichlorophenyl)-3-(hydroxymethyl)imidazo[2,1-f][1,6]naphthyridin-9-yl)-1H-pyrazol-1-yl)propan-1-ol] | 10 to 50 | 1 to 5 | 
CN1CCC(n2cc(-c3cnc4ccn5c(CCO)c(-c6c(Cl)cccc6Cl)nc5c4c3)cn2)CC1 [Example 34, 2-(2-(2,6-Dichlorophenyl)-9-(1-(1-methylpiperidin-4-yl)-1H-pyrazol-4-yl)imidazo[2,1-f][1,6]naphthyridin-3-yl)ethan-1-ol] | 10 to 50 | 1 to 5 | 
OCc1c(-c2c(Cl)cccc2Cl)nc2c3cc(-c4cnn(Cc5ccncn5)c4)cnc3ccn12 [Example 1, (2-(2,6-Dichlorophenyl)-9-(1-(pyrimidin-4-ylmethyl)-1H-pyrazol-4-yl)imidazo[2,1-J][1,6]naphthyridin-3-yl)methanol] | 10 to 50 | 1 to 5 | 
COCC(=O)N1CCC(n2cc(-c3cnc4ccn5c(CO)c(-c6c(C)cccc6Cl)nc5c4c3)cn2)CC1 [Example 21, 1-(4-(4-(2-(2-Chloro-6-methylphenyl)-3-(hydroxymethyl)imidazo[2,1-f][1,6]naphthyridin-9-yl)-1H-pyrazol-1-yl)piperidin-1-yl)-2-methoxyethan-1-one] | < 10 | 1 to 5 | 
CC(=O)N1CCC(n2cc(-c3cnc4ccn5c(CO)c(-c6c(Cl)cccc6Cl)nc5c4c3)cn2)CC1 [Example 20, 1-(4-(4-(2-(2,6-Dichlorophenyl)-3-(hydroxymethyl)imidazo[2,1-f][1,6]naphthyridin-9-yl)-1H-pyrazol-1-yl)piperidin-1-yl)ethan-1-one] | < 10 | < 1 | 
OCc1c(-c2c(Cl)cccc2Cl)nc2c3cc(-c4cnn(Cc5ccnc(C(F)(F)F)c5)c4)cnc3ccn12 [Example 5, (2-(2,6-Dichlorophenyl)-9-(1-((2-(trifluoromethyl)pyridin-4-yl)methyl)-1H-pyrazol-4-yl)imidazo[2,1-f][1,6]naphthyridin-3-yl)methanol] | < 10 | 1 to 5 | 
N#CCn1cc(-c2cnc3ccn4c(C(F)F)c(-c5c(Cl)cccc5Cl)nc4c3c2)cn1 [Example 29, 2-(4-(2-(2,6-Dichlorophenyl)-3-(difluoromethyl)imidazo[2,1-f][1,6]naphthyridin-9-yl)-1H-pyrazol-1-yl)acetonitrile] | < 10 | < 1 | 
Nc1c(-c2c(Cl)cccc2Cl)nc2c3cc(-c4cnn(C5CCOCC5)c4)cnc3ccn12 [Example 35, 2-(2,6-Dichlorophenyl)-9-(1-(tetrahydro-2H-pyran-4-yl)-1H-pyrazol-4-yl)imidazo[2,1-f][1,6]naphthyridin-3-amine] | 10 to 50 | 1 to 5 | 
O=C(c1ccc(-c2cnc3ccn4c(CO)c(-c5c(Cl)cccc5Cl)nc4c3c2)cc1)N1CCOCC1 [Example 6, (4-(2-(2,6-Dichlorophenyl)-3-(hydroxymethyl)imidazo[2,1-f][1,6]naphthyridin-9-yl)phenyl)(morpholino)methanone] | 10 to 50 | 1 to 5 | 
CN(C)C(=O)Cn1cc(-c2cnc3ccn4c(CO)c(-c5c(Cl)cccc5Cl)nc4c3c2)cn1 [Example 19, 2-(4-(2-(2,6-Dichlorophenyl)-3-(hydroxymethyl)imidazo[2,1-f][1,6]naphthyridin-9-yl)-1H-pyrazol-1-yl)-N,N-dimethylacetamide] | 10 to 50 | 1 to 5 | 
N#Cc1cc(Cn2cc(-c3cnc4ccn5c(CO)c(-c6c(Cl)cccc6Cl)nc5c4c3)cn2)ccn1 [Example 4, 4-((4-(2-(2,6-Dichlorophenyl)-3-(hydroxymethyl)imidazo[2,1-f][1,6]naphthyridin-9-yl)-1H-pyrazol-1-yl)methyl)picolinonitrile] | < 10 | < 1 | 
O=S1(=O)CCCC(n2cc(-c3cnc4ccn5c(CO)c(-c6c(Cl)cccc6Cl)nc5c4c3)cn2)C1 (single isomer, unassigned) [26 peak 1] | 10 to 50 | 1 to 5 | 
CC(=O)N1CCN(Cc2ccc(-c3cnc4ccn5c(CO)c(-c6c(Cl)cccc6Cl)nc5c4c3)cc2)CC1 [Example 9, 1-(4-(4-(2-(2,6-Dichlorophenyl)-3-(hydroxymethyl)imidazo[2,1-f][1,6]naphthyridin-9-yl)benzyl)piperazin-1-yl)ethan-1-one] | 10 to 50 | 1 to 5 | 
Cc1c(-c2c(Cl)cccc2Cl)nc2c3cc(-c4cnn(C5CN(C(=O)c6cn(C)nn6)C5)c4)cnc3ccn12 [Example 13, (3-(4-(2-(2,6-Dichlorophenyl)-3-methylimidazo[2,1-J][1,6]naphthyridin-9-yl)-1H-pyrazol-1-yl)azetidin-1-yl)(1-methyl-1H-1,2,3-triazol-4-yl)methanone] | 10 to 50 | 1 to 5 | 
CC(CC#N)n1cc(-c2cnc3ccn4c(CO)c(-c5c(Cl)cccc5Cl)nc4c3c2)cn1 (single isomer, unassigned) [23 peak 2] |  | < 1 | 10 to 50
CC(C)(C#N)n1cc(-c2cnc3ccn4c(CO)c(-c5c(Cl)cccc5Cl)nc4c3c2)cn1 [Example 16, 2-(4-(2-(2,6-Dichlorophenyl)-3-(hydroxymethyl)imidazo[2,1-f][1,6]naphthyridin-9-yl)-1H-pyrazol-1-yl)-2-methylpropanenitrile] | 10 to 50 | 1 to 5 | 
